Laboratory results taken from patent US10899754B2, “Modulators of indoleamine 2,3-dioxygenase” (GLAXOSMITHKLINE INTELLECTUAL PROPERTY DEVELOPMENT LIMITED, priority 2016, dated 2021).

Legend:
[1] = system: human peripheral blood mononuclear cells (PBMC); test: PBMC cytotoxicity assay (CellTiter-Glo); type: cell-based; conditions: 2 days, pCC50
How it was run: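 % cytotoxicity was taken from CellTiter-Glo luminescence, using wells without cells and stimulated DMSO wells as references, and fitted by four-parameter curve to give XC50. Cells were human PBMC at 50,000 per well, activated with 100 ng/ml IFN-γ plus 50 ng/ml LPS. Incubation with 11-point, 3-fold dilution series ran for 2 days at 37 °C.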

[2] = biological target: indoleamine 2, 3-dioxygenase (IDO1) (Homo sapiens, UniProt P14902); test: IDO1 PBMC RapidFire MS assay (kynurenine detection by mass spectrometry); type: cell-based; design: to induce the expression of indoleamine 2, 3-dioxygenase (IDO1); host or cells: human PBMC stimulated with IFN-gamma and LPS; conditions: human PBMC stimulated with IFN-γ and LPS, 2 days, pIC50, read-out: PBMC PXC50 (converted)
Sequence of indoleamine 2, 3-dioxygenase (IDO1) (P14902 whole entry): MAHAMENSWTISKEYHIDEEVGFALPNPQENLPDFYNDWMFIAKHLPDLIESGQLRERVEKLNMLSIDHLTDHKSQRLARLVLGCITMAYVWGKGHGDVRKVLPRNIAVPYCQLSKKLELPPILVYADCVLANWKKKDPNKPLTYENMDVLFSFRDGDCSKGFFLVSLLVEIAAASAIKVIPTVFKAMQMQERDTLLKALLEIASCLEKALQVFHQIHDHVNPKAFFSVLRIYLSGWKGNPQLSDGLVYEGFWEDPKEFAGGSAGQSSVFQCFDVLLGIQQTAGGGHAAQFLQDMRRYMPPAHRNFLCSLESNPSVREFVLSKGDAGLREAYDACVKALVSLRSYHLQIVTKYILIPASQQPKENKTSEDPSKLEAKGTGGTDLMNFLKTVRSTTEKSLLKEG
How it was run: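 Kynurenine output, read by RapidFire mass spectrometry as ratio to an internal standard, was measured after 2-day compound exposure (11-point, 3-fold dilutions) of human PBMCs induced with 100 ng/ml IFN-γ and 50 ng/ml LPS. Cell viability tracked alongside via ATP luminescence; XC50 from curve fitting.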

Row | SMILES | PBMC TOX PXC50 [1] | IC50 [2] [nM]
1 | COCc1ccc(Nc2cc([C@H](C)CC(=O)O)ccc2N(CC(C)C)[C@H]2CC[C@H](OC)CC2)nc1 (racemic) [example 247, (3RS)-3-(3-{[5-(methoxymethyl)pyridin-2-yl]amino}-4-[(2-methylpropyl)[(1rs&,4rs&)-4-methoxycyclohexyl]ami-no]phenyl)butanoic acid] | <5 | 31.6
2 | CC(C)CN(c1ccc([C@H](C)CC(=O)O)cc1Nc1n[nH]c(C(F)(F)F)n1)[C@H]1CC[C@H](O)CC1 (racemic) [example 219, (3RS)-3-{4-[(2-methylpropyl)[(1rs&,4rs&)-4-hydroxycyclohexyl]amino]-3-{[5-(trifluoromethyl)-1H-1,2,4-triazol-3-yl]amino}phenyl}butanoic acid] | <5 | 100
3 | CO[C@H]1CC[C@H](N(CC(C)C)c2ccc([C@H](C)CC(=O)O)cc2Nc2n[nH]c(C(N)=O)n2)CC1 (racemic) [example 223, (3RS)-3-{3-[(5-carbamoyl-1H-1,2,4-triazol-3-yl)amino]-4-[(2-methylpropyl)[(1rs&,4rs&)-4-methoxycyclohexyl]ami-no]phenyl}butanoic acid] | <5 | 501
4 | CC(C)CN(CC(C)C)c1ccc([C@H](C)CC(=O)O)cc1Nc1ccc(=O)n(C)c1 [example 218, (3R)-3-{4-[bis(2-methylpropyl)amino]-3-[(1-methyl-6-oxo-1,6-dihydropyridin-3-yl)amino]phenyl}butanoic acid] | <5 | 2000
5 | CC(C)CN(c1ccc([C@H](C)CC(=O)O)cc1Nc1nc(C(F)(F)F)ns1)C1CCN(c2nc(C(F)(F)F)ns2)CC1 [Example 95, (R)-3-(4-(isobutyl(1-(3-(trifluoromethyl)-1,2,4-thiadiazol-5-yl)piperidin-4-yl)amino)-3-((3-(trifluoromethyl)-1,2,4-thiadiazol-5-yl)amino)phenyl)butanoic Acid] | <5 | 1.58
6 | CO[C@H]1CC[C@H](N(CC(C)C)c2ccc([C@H](C)CC(=O)O)cc2Nc2n[nH]c(C#N)n2)CC1 (racemic) [example 222, (3RS)-3-{3-[(5-cyano-1H-1,2,4-triazol-3-yl)amino]-4-[(2-methylpropyl)[(1rs&,4rs&)-4-methoxycyclohexyl]ami-no]phenyl}butanoic acid] | <5 | 200
7 | Cc1nc(Nc2cc([C@H](C)CC(=O)O)ccc2N(CC(C)C)C2CCOCC2)ccc1Cl [example 260, (3R)-3-{3-[(5-chloro-6-methylpyridin-2-yl)amino]-4-[(2-methylpropyl)(oxan-4-yl)amino]phenyl}butanoic acid] | <5 | 39.8
8 | CC(C)CN(c1ccc([C@H](C)CC(=O)O)cc1Nc1n[nH]c(C#N)n1)C1CCCCC1 [Example 83, (R)-3-(3-((5-cyano-1H-1,2,4-triazol-3-yl)amino)-4-(cyclohexyl(isobutyl)amino)phenyl)butanoic Acid] | <5 | 7.94
9 | COCc1ccc(Nc2cc([C@H](C)CC(=O)O)ccc2N(CC(C)C)[C@H]2CC[C@@H](OC)CC2)nc1 [Example 60, (R)-3-(4-(isobutyl((1s,4S)-4-methoxycyclohexyl)amino)-3-((5-(methoxymethyl)pyridin-2-yl)amino)phenyl)butanoic Acid] | <5 | 10
10 | CC(C)CN(c1ccc([C@H](C)CC(=O)O)cc1Nc1ccc(C(N)=O)nc1)C1CCOCC1 [example 239, (3R)-3-{3-[(6-carbamoylpyridin-3-yl)amino]-4-[(2-methylpropyl)(oxan-4-yl)amino]phenyl}butanoic acid] | <5 | 25.1
11 | CC(C)CN(c1ccc([C@H](C)CC(=O)O)cc1Nc1ccc(Cl)c(Cl)n1)C1CCOCC1 [Example 33, (R)-3-(3-((5,6-Dichloropyridin-2-yl)amino)-4-(isobutyl(tetrahydro-2H-pyran-4-yl)amino)phenyl)butanoic Acid] | <5 | 6.31
